From patent US20090197916A1, “SOLUBLE EPOXIDE HYDROLASE INHIBITORS FOR TREATMENT OF METABOLIC SYNDROME AND RELATED DISORDERS” (Arete Therapeutics, Inc, priority 2007, published 2009)

What was measured:
PPARγ = target: T1, PPARγ (Homo sapiens, UniProt P37231); assay: standard PPARγ activation assay; type: cell-based; details: relative to standard reference
T1 sequence (P37231 1-505): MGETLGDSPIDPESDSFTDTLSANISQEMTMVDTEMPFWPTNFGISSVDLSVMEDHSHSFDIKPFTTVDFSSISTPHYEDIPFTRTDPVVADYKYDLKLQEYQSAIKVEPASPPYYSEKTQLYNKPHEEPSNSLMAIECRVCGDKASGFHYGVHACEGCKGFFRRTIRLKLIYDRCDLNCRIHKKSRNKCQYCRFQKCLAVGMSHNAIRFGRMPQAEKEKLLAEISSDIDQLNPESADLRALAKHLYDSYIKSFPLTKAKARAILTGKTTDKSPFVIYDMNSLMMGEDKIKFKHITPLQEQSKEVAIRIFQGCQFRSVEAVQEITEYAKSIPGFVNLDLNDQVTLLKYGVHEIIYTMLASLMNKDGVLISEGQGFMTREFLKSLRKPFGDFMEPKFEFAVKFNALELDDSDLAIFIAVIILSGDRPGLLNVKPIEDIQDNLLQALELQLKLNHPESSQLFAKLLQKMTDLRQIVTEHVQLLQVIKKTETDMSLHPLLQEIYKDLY

apoE deficient mice = assay: Model 3: angiotensin II-infused apoE deficient mice with carotid ligation; type: in vivo
Protocol: All protocols were approved by the institutional animal care and use committee at Arête Therapeutics. Six-month old male apoE deficient mice (The Jackson Laboratory, Bar Harbor, Me.) fed a normal chow were used in this study. Baseline blood pressure and body weight were measured before surgery. Animals were anesthetized by inhalation of 2% isoflurane. The left common carotid artery carefully dissected via a midline neck incision under a dissecting microscope, and the left common carotid artery was ligated with a 6-0 silk ligature just proximal to its bifurcation. At the time of ligation, animals were subcutaneously implanted with a minipump (model 2004, Durect Corp., Cupertino, Calif.) filled with Ang II (1.44 mg/Kg/day, Phoenix Pharmaceuticals, Burlingame, Calif.). The animals were randomly divided into 2 groups; Vehicle: drinking water containing 5% hydroxypropyl-beta-cyclodextrin (HPBCD) or Compound 6: drinking water containing 1.5 mg/ml Compound 6 in 5% HPBCD. Each experimental group included 11 animals. After 4 weeks of Ang TI infusion, systolic blood pressure was measured in conscious mice using a tail-cuff system (Kent Scientific Corporation, Torrington, Conn.), and the animals were euthanized. Blood samples were collected via cardiac puncture for the measurement of a serum cholesterol profile (IDEXX Veterinary Services, West Sacramento, Calif.) and serum inflammatory panel (Murigenics, Hayward, Calif.) using a mouse cytokine/chemokine panel kit (Millipore, Billerica, Mass.), and tissues were removed for analysis.
All results are presented as the mean and standard error (SEM). Comparison between the vehicle and Compound 6 treatment groups was performed using Student's t test. The percentage of mice that developed AAA was compared between the two groups using X^2 test.

pharmacokinetics in mice = type: in vivo; details: mouse, plasma
whole blood sEH activity = target: T2, whole blood sEH activity (Mus musculus, UniProt P34914); assay: whole blood sEH activity in apoE KO mice, dosing with drinking water; type: in vivo; details: treatment with drinking water
T2 construct: from tissue; host or cells: whole blood of apoE KO mice
T2 sequence (P34914 1-554): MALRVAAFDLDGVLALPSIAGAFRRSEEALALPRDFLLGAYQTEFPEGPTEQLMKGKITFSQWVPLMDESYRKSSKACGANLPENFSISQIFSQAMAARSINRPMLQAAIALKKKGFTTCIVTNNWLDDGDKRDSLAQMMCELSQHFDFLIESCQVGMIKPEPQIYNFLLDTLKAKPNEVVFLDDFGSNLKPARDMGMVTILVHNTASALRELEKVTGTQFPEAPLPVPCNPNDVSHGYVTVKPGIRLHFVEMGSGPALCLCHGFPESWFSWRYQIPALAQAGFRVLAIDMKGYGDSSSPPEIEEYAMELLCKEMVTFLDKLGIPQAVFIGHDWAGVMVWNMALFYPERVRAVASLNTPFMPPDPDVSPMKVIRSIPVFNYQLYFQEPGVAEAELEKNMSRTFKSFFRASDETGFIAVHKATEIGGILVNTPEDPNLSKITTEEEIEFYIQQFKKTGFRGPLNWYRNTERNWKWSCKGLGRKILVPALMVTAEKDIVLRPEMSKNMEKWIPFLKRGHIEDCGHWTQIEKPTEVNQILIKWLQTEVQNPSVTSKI

[1] = test system: over 100 cardiovascular disease related targets, including hydroxy-methylglutaryl-coenzyme A (HMO CoA) reductase; assay: off-target screen assays; details: concentration of 10 μM
sEH [2] = target: T3, sEH (Homo sapiens, UniProt P34913); assay: sEH cell based assay (Compound 6); details: read-out: IC50 for inhibition of sEH, cell based assay
T3 sequence (P34913 1-555): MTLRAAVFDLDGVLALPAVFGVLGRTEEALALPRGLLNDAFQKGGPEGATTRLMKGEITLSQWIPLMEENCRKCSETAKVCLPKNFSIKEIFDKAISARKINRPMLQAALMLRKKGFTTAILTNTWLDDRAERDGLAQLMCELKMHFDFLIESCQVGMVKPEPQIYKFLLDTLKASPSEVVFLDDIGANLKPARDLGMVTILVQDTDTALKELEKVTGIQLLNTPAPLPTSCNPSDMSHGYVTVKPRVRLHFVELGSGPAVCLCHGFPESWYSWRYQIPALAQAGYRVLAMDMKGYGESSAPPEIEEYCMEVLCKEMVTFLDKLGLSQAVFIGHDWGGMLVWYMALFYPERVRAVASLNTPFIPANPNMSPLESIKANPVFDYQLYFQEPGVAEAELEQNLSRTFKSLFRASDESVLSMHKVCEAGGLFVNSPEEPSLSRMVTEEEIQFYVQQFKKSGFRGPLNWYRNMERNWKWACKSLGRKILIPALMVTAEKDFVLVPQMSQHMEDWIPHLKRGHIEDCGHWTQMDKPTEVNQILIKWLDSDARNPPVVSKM

sEH [3] = target: T3, sEH; assay: sEH inhibition, fluorescent assay with CMNPC substrate (percent inhibition and IC50); type: biochemical; details: Concentration 2000 nM
Protocol: The substrate for the reaction was:
Therefore, well A2 would refer to a well in the first row and second column of the plate.
In a black 96 well plate, all the wells are filled with 150 μL of buffer A (Buffer A: Bis/Tris HCl, 25 mM, pH 7.0 plus 0.1 mg/mL BSA). DMSO (2 microliters) was added in well A2 and A3, and then was added 2 μL of inhibitor solution in A1 and A4 through A12. […] The plate was incubated for 5 minutes in the plate reader at 30° C. During incubation, the working solution of substrate was prepared by mixing 3.68 mL of buffer A with 266 μL of 0.5 mM substrate solution. At t=0, 30 μL of working substrate solution was added and readings were started ([S]final: 5 μM).

sEH [4] = target: T3, sEH; assay: sEH enzymatic assay (Compound 6); type: biochemical; details: read-out: IC50 for inhibition of sEH, enzymatic assay

CCCCCC1OC1C/C=C\C/C=C\C/C=C\CCCC(=O)O (centres unmarked) [14, 15 EET, reference compound]
PPARγ activation relative to troglitzone (100%) (PPARγ): 28%

O=C(Nc1ccc(OC(F)(F)F)cc1)NC1CCN(C(=O)c2cccnc2)CC1 [Compound 6, 1-(1-nicotinoylpiperidin-4-yl)-3-(4-(trifluoromethoxy)phenyl)urea]
HDL levels compared to vehicle (apoE deficient mice; 4 weeks): significantly higher
effect on blood pressure, body weights, and food consumption (apoE deficient mice; 4 weeks): no statistical significant effect
ratio of LDL/HDL relative to vehicle group (apoE deficient mice; 4 weeks): only half of that in vehicle group
total cholesterol level compared to vehicle (apoE deficient mice; 4 weeks): significantly lower
triglyceride and glucose levels compared to vehicle (apoE deficient mice; 4 weeks): no significant difference
Ratio of LDL/HDL (apoE deficient mice; 4 weeks, vehicle 19.6 ± 1.5): 10.5 ± 1.5
body weight (apoE deficient mice; 4 weeks, vehicle 27 ± 0.7): 28 ± 0.6 g
HDL (apoE deficient mice; 4 weeks, vehicle 32 ± 3): 46 ± 4 mg/dL
Blood Glucose (apoE deficient mice; 4 weeks, vehicle 216 ± 22): 185 ± 17 mg/dL
Triglyceride (apoE deficient mice; 4 weeks, vehicle 301 ± 59): 258 ± 47 mg/dL
LDL (apoE deficient mice; 4 weeks, vehicle 624 ± 70): 438 ± 28 mg/dL
Blood Pressure (mmHg) Baseline (apoE deficient mice; Baseline, before surgery and treatment): 101 ± 2 mmHg
Blood Pressure (mmHg) End (apoE deficient mice; End, after 4 weeks of Ang II infusion, vehicle 137 ± 3): 130 ± 4 mmHg
atherosclerosis progression and aneurysm formation (apoE deficient mice; apoE deficient mice chronically treated with Ang II): attenuated
bioavailability (pharmacokinetics in mice; AUC oral dose relative to AUC intravenous dose): > 100%
half-life (pharmacokinetics in mice; intravenous administration, read-out: terminal half life (converted)): ~4 h
average plasma concentration (whole blood sEH activity): 21 ± 1.8 µg/mL
activity in off-target screen assays [1]: inactive
IC50 (sEH [2]): 8.9 nM
PPARγ activation relative to troglitzone (100%) (PPARγ): 11%
inhibition at 2 µM (sEH [3]): 100%
IC50 (sEH [4]): 1.6 nM
